Test results taken from US8519154B2, “Method for treatment of bronchial asthma” (Council of Scientific & Industrial Research, priority 2011, dated 2013).
Like-named read-outs stand apart in the source and are kept apart here.

Columns and labels:
[1] = Organ distribution of ICB/11/D-8; assay type: in vivo; settings: Swiss, mouse, N=4 mice
Description: Organ Distribution of ICB/11/D-8 (ug/100 mg tissue, N=4 mice, 50

[2] = Plasma binding; assay type: in vitro ADME
[3] = Crossing of the intestinal barrier; assay type: in vitro ADME
[4] = system: rats; assay: Bile secretion; assay type: in vivo
Description: Rats were anaesthetized with urethane (25% w/v; 0.6 ml/100 g bw, ip). A catheter was placed in the jugular vein for Compound I administration. Abdominal cavity was opened by midline incision and the common bile duct was cannulated to measure the biliary secretion which was collected over 2 hours duration. The total bile excreted was compared between control (untreated) and Compound I treated rats [Shetler, T., Bendele, A., Buening, M., Clemens, J., Colbert, W., Deldar, A., Helton, D., Mc Grath J., Shannon, H., Turk, J., Williams, P., General Pharmacology of Loracarbef in Animals. Arzneim-Forsch./Drug Res. 43 (1993) 1-6].

[5] = system: mice; assay: Charcoal meal transit time; assay type: in vivo
Description: […] charcoal suspension (20 ml/kg prepared as a 5% solution in 10% gum acacia) was administered perorally 60 min after D8 administration (perorally). After 30 min, charcoal meal administration small intestines were excised and aligned parallel to a ruler. Ratio of the distance traveled by the charcoal meal to the total length of the small intestine was determined for the control (untreated) and Compound I treated mice [Ali, B. H. Bashir, A A. The effect of alpha 2-receptor agonists and antagonists on gastro-intestinal transit time. Clinical and Experimental Pharmacology and Physiology, 20 (1993) 1-6].

[6] = Lipophilicity; assay type: physicochemical
[7] = system: mice; assay: Electric shock induced convulsions; assay type: in vivo, Swiss mice
Description: Convulsion were induced by a single electroshock (50 Hz in frequency, 0.5 ms pulse width, 50 mA current for 0.3 s) applied through bi-polar electrodes attached to the ear pinna on both side using a pulse generator (Ugo Basile, Italy). The convulsive activity (determined by loss of tonic extensor seizure) was recorded in control (untreated) and Compound I were treated (before electro-shock application) animals [Achliya, G S, Wadodkar, S G, Darle, A K., Evaluation of CNS activity of Bramhi Ghrita. Indian J. Pharmacol. 37 (2005) 33-36].
Anti-convulsant activity was measured by electric shock induced seizure. Five Swiss mice were used for one dose of drug. Convulsion were induced by a single electroshock (50 Hz in frequency, 0.5 ms pulse width, 50 mA current for 0.3 s) applied through bi-polar electrodes attached to the ear pinna on both side by a pulse generator (Ugo Basile, Italy) Test drug were administered orally 60 min before electroshock application, and convulsive activity was determined by loss of tonic extensor seizure.

[8] = system: mice; assay: Analgesic activity by hot plate method; assay type: in vivo
Description: Analgesic activity was carried out by Hot Plate method. The response time for paw licking or jumping on the heated plate of analgesiometer (55±1° C.). (Socrel, Ugo Basile, Italy) was taken as the reaction time. A comparison of reaction time (in seconds) between control (untreated) and Compound I treated mice was made for a group of 6 animals in each test group [Eddy, N B., Leimbach, D., Synthetic analgesics, II. Dithienylbutenyl- and dithienylbutylamines. J. Pharmacol. Exp. Ther. 107 (1953) 385-393].
The time for hind paw licking or jumping on the heated plate of analgesiometer (Socrel, ugo basile, Italy) was taken as the reaction time.

[9] = system: OVA sensitized and challenged mice, lung sections; assay: Histological analysis of lung inflammation in mouse model of asthma; assay type: in vivo; settings: H&E lung sections
Description: To determine the effect of Compound I on airway inflammation, histopathological analysis of formalin fixed, paraffin embedded lung sections was performed. The excised lung portion was fixed in 10% buffered formalin. The fixed, paraffin embedded tissue were sectioned into 4 μm sections and stained with Hematoxylin & Eosin (H&E) to assess inflammation

[10] = target: CYP 3A4 (liver) (Homo sapiens, UniProt P08684); assay: Metabolism by CYP 3A4; assay type: in vitro ADME
Sequence of CYP 3A4 (liver) (P08684 whole entry, species assumed): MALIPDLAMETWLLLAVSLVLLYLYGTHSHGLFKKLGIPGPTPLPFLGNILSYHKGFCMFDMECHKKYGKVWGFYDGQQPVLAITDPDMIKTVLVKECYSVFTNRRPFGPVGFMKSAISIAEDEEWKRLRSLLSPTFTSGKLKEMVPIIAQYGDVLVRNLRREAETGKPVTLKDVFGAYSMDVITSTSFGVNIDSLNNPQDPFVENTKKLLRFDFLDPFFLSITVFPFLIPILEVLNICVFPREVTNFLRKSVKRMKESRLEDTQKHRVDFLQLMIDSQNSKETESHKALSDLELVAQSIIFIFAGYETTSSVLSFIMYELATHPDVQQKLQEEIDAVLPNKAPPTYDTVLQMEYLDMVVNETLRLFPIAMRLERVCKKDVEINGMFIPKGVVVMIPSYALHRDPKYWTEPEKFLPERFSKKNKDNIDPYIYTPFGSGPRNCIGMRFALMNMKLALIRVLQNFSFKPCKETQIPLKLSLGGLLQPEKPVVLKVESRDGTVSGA

Structure (SMILES): COc1cc(C=O)cc2c1[nH]c1ccccc12 [Compound I, 1-methoxy-3-formyl-9H carbazole]
- concentration at 0.5 hr ([1]; brain, 0.5 hr, read-out: Organ distribution: Brain): 2300 ng/g
- concentration at 2 hr ([1]; brain, 2 hr, read-out: Organ distribution: Brain): 26700 ng/g
- concentration at 4 hr ([1]; brain, 4 hr, read-out: Organ distribution: Brain): 43300 ng/g
- concentration at 12 hr ([1]; brain, 12 hr, read-out: Organ distribution: Brain): 3600 ng/g
- concentration at 0.5 hr ([1]; heart, 50 not found, 0.5 hr, read-out: Organ distribution: Heart): 185000 ng/g
- concentration at 2 hr ([1]; heart, 2 hr, read-out: Organ distribution: Heart): 263000 ng/g
- concentration at 4 hr ([1]; heart, 4 hr, read-out: Organ distribution: Heart): 168000 ng/g
- concentration at 12 hr ([1]; heart, 12 hr, read-out: Organ distribution: Heart): 32200 ng/g
- concentration at 0.5 h ([1]; intestine, 0.5 hr): 105000 ng/g
- concentration at 2 h ([1]; intestine, 2 hr): 168000 ng/g
- concentration at 4 h ([1]; intestine, 4 hr): 124000 ng/g
- concentration at 12 h ([1]; intestine, 12 hr): 25500 ng/g
- concentration at 0.5 hr ([1]; kidneys, 0.5 hr, read-out: Organ distribution: Kidneys): 135000 ng/g
- concentration at 2 hr ([1]; kidneys, 2 hr, read-out: Organ distribution: Kidneys): 171000 ng/g
- concentration at 4 hr ([1]; kidneys, 4 hr, read-out: Organ distribution: Kidneys): 105000 ng/g
- concentration at 12 hr ([1]; kidneys, 12 hr, read-out: Organ distribution: Kidneys): 15800 ng/g
- concentration at 0.5 hr ([1]; liver, 0.5 hr, read-out: Organ distribution: Liver): 89500 ng/g
- concentration at 2 hr ([1]; liver, 2 hr, read-out: Organ distribution: Liver): 168000 ng/g
- concentration at 4 hr ([1]; liver, 4 hr, read-out: Organ distribution: Liver): 110000 ng/g
- concentration at 12 hr ([1]; liver, 12 hr, read-out: Organ distribution: Liver): 12500 ng/g
- concentration at 2 hr ([1]; lungs, 50 not found, 2 hr, read-out: Organ distribution: Lungs): 273000 ng/g
- concentration at 4 hr ([1]; lungs, 50 not found, 4 hr, read-out: Organ distribution: Lungs): 80700 ng/g
- concentration at 12 hr ([1]; lungs, 50 not found, 12 hr, read-out: Organ distribution: Lungs): 6700 ng/g
- concentration at 0.5 hr ([1]; lungs, 0.5 hr, read-out: Organ distribution: Lungs): 122000 ng/g
- concentration at 0.5 hr ([1]; spleen, 50 not found, 0.5 hr, read-out: Organ distribution: Spleen): 123000 ng/g
- concentration at 2 hr ([1]; spleen, 50 not found, 2 hr, read-out: Organ distribution: Spleen): 140000 ng/g
- concentration at 4 hr ([1]; spleen, 50 not found, 4 hr, read-out: Organ distribution: Spleen): 52500 ng/g
- concentration at 12 hr ([1]; spleen, 50 not found, 12 hr, read-out: Organ distribution: Spleen): 9100 ng/g
- concentration at 0.5 hr ([1]; stomach, 0.5 hr, read-out: Organ distribution: Stomach): 378000 ng/g
- concentration at 2 hr ([1]; stomach, 2 hr, read-out: Organ distribution: Stomach): 689000 ng/g
- concentration at 4 hr ([1]; stomach, 4 hr, read-out: Organ distribution: Stomach): 227000 ng/g
- concentration at 12 hr ([1]; stomach, 12 hr, read-out: Organ distribution: Stomach): 43300 ng/g
- concentration at 0.5 hr ([1]; urine, 0.5 hr, read-out: Organ distribution: Urine/ml): 2600 ng/mL
- concentration at 2 hr ([1]; urine, 2 hr, read-out: Organ distribution: Urine/ml): 6560 ng/mL
- concentration at 4 hr ([1]; urine, 4 hr, read-out: Organ distribution: Urine/ml): 4070 ng/mL
- concentration at 0.5 hr ([1]; male, testes, 0.5 hr, read-out: Organ distribution: Testes): 168000 ng/g
- concentration at 2 hr ([1]; male, testes, 2 hr, read-out: Organ distribution: Testes): 313000 ng/g
- concentration at 4 hr ([1]; male, testes, 4 hr, read-out: Organ distribution: Testes): 58800 ng/g
- concentration at 12 hr ([1]; male, testes, 12 hr, read-out: Organ distribution: Testes): 7800 ng/g
- plasma binding [2]: high plasma binding
- crosses the intestinal barrier [3]: largely by passive diffusion
- Bile (grams ± SEM) After ([4]; 25 mg/kg i.v.): 1.390 ± 0.06 grams
- Bile (grams ± SEM) Before ([4]; 25 mg/kg i.v.): 1.285 ± 0.049 grams
- Bile (grams ± SEM) After ([4]; 50 mg/kg i.v.): 1.125 ± 0.125 grams
- Bile (grams ± SEM) Before ([4]; 50 mg/kg i.v.): 1.305 ± 0.145 grams
- change in the mass of bile collected ([4]; 25 and 50 mg/kg intravenously): no significant change in the mass of bile collected
- % Transport (Mean ± SEM) ([5]; 12.5 mg/kg p.o.): 74.15 ± 3.4%
- % Transport (Mean ± SEM) ([5]; 25 mg/kg p.o.): 76.6 ± 6.7%
- % Transport (Mean ± SEM) ([5]; 50 mg/kg p.o.): 77.12 ± 1.49%
- change in charcoal powder transporting ratio vs control ([5]; 12.5, 25 and 50 mg/kg): no significant change in charcoal powder transporting ratio
- lipophilicity [6]: highly lipophilic
- Convulsions Clonic ([7]; 12.5 mg/kg p.o.): 5/5
- Convulsions Tonic ([7]; 12.5 mg/kg p.o.): 5/5
- Mortality ([7]; 12.5 mg/kg p.o.): 1/5
- Convulsions Clonic ([7]; 50 mg/kg p.o.): 5/5
- Convulsions Tonic ([7]; 50 mg/kg p.o.): 5/5
- Mortality ([7]; 50 mg/kg p.o.): 0/5
- Convulsions Clonic ([7]; 100 mg/kg p.o.): 5/5
- Convulsions Tonic ([7]; 100 mg/kg p.o.): 5/5
- Mortality ([7]; 100 mg/kg p.o.): 0/5
- anti-convulsant activity ([7]; 12.5, 25 and 50 mg/kg orally): no anti-convulsant activity
- Reaction time ([8]; 12.5 mg/kg p.o., 0 hr): 11.08 ± 1.60 s
- Reaction time ([8]; 12.5 mg/kg p.o., 1 hr): 10.62 ± 1.64 s
- Reaction time ([8]; 25 mg/kg p.o., 0 hr): 13.58 ± 2.15 s
- Reaction time ([8]; 25 mg/kg p.o., 1 hr): 14.62 ± 4.67 s
- Reaction time ([8]; 50 mg/kg p.o., 0 hr): 14.38 ± 1.87 s
- Reaction time ([8]; 50 mg/kg p.o., 1 hr): 14.34 ± 1.07 s
- change in the reaction time on a hot plate ([8]; 12.5, 25 and 50 mg/kg orally, 55±1° C.): did not show any significant change in the reaction time
- perivascular and peribronchial inflammation [9]: reduced both perivascular and peribronchial inflammation in a dose dependent manner
- metabolism [10]: metabolized by CYP 3A4 (liver)
